From patent US10543212B2, “Substituted amines for treating cardiac diseases” (Cardurion Pharmaceuticals, LLC, priority 2017, dated 2020)

Each compound was assayed against T1, Full-length, GST-tagged, human CaMKIIδ (Homo sapiens, UniProt Q13557) (assay: CaMKIIδ binding assay (TR-FRET with BODIPY-labeled probe ligand)). Conditions: CaMKIIδ binding assay, results of Table 2.
T1 construct: Full-Length, Glutathione-S-Transferase(GST)-Tagged, Human CaMKIIδ was purchased from Carna Biosciences; purchased Carna Biosciences 02-111
Description: In vitro CaMKIIδ inhibitory activity was evaluated by a binding assay.
Full-Length, Glutathione-S-Transferase(GST)-Tagged, Human CaMKIIδ was purchased from Carna Biosciences (product #02-111, Kobe, Japan). Full-length bovine calmodulin was purchased from Wako Pure Chemical Industries (Osaka, Japan). Terbium-labeled anti-GST antibody (Tb-anti-GST Ab) was purchased from Life Technologies (Carlsbad, Calif., USA). Boron-dipyrromethene (BODIPY)-labeled probe ligand was synthesized as described below.
Time-Resolved Fluorescence Resonance Energy Transfer (TR-FRET) Assay
All assays were conducted using 384-well, white, flat-bottomed plates (product #784075, Greiner Bio-One, Frickenhausen, Germany) in kinase assay buffer, which consists of 50 mM HEPES pH 7.6, 10 mM MgCl2, 1 mM EGTA, 0.01% Brig-35, 0.1 mM DTT). The fluorescent probe ligand was added at a final concentration of 300 nM to solutions containing 0.21 nM Tb-anti-GST Ab, 1 mM CaCl2), 10 μg/mL calmodulin, and 0.5 nM GST-tagged CaMKIIδ. After shaded incubation of the protein-probe mixture on ice for 30 min, the premix was dispensed in the assay plate including test inhibitors with 4 fold dilution series of eight concentrations. After 1 hr incubation at room temperature, TR-FRET signals were measured in duplicate using an EnVision microplate reader (Perkin Elmer, Waltham, Mass., USA). The solution in each well was excited with a laser (λ=340 nm) reflected by a dichroic mirror (D400/D505 (Perkin Elmer) through an excitation filter (UV (TRF) 340, (Perkin Elmer)), and fluorescence from Tb and BODIPY were detected through two emission filters (CFP 495 (Perkin Elmer) for Tb, Emission 520 (Perkin Elmer) for BODIPY).
The percentage of inhibition of test compounds was calculated according to equation (1) Inhibition (%)=100×([…]−T)/(μH−μL) (1)
Where T is the value of the wells containing test compounds and μH and μL are the mean values of the 0% and 100% inhibition control wells, respectively. The values of the 0 and 100% controls were the signals obtained in the absence and presence of 3 μM its parent compound, respectively. The half maximal inhibitory concentration (IC50) of test compounds was calculated by fitting the data with the logistic equation using XLfit (IDBS, Guildford, UK). The IC50 was classified according to the following activity ranks.

T1 sequence (Q13557 1-478 isoform Q13557-12): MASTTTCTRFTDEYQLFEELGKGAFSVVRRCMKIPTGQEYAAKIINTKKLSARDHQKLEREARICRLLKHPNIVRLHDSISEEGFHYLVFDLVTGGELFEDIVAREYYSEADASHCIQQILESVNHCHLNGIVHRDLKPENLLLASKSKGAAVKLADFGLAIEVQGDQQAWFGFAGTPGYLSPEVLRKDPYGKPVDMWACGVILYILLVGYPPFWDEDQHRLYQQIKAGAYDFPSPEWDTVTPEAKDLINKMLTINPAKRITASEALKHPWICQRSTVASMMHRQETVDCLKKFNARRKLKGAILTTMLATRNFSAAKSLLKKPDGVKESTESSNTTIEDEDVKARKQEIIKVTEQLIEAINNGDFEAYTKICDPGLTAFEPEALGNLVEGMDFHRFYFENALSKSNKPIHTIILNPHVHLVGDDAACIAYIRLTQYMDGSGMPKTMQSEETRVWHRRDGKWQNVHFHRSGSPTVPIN

Row | Compound | IC50 [nM]
1 | C[C@@H](Cn1cnnn1)Oc1cc(-c2cnc(Nc3ccc4c(c3)N(C(=O)CCN(C)C)CC4)nc2)ccc1Cl [Example 437, (S)-1-(6-((5-(3-((1-(1H-tetrazol-1-yl)propan-2-yl)oxy)-4-chlorophenyl)pyrimidin-2-yl)amino)indolin-1-yl)-3-(dimethylamino)propan-1-one] | < 10
2 | COc1cc2c(cc1Nc1ncc(-c3ccc(Cl)c(O[C@@H](C)Cn4cnnn4)c3)cn1)C(=O)N(C1CCOCC1)C2 [Example 438, (S)-6-((5-(3-((1-(1H-tetrazol-1-yl)propan-2-yl)oxy)-4-chlorophenyl)pyrimidin-2-yl)amino)-5-methoxy-2-(tetrahydro-2H-pyran-4-yl)isoindolin-1-one] | 10 to 100
3 | COc1cc(C)c(C(=O)N2CCOCC2)cc1Nc1ncc(-c2ccc(Cl)c(O[C@@H](C)Cn3cnnn3)c2)cn1 [Example 439, (S)-(5-((5-(3-((1-(1H-tetrazol-1-yl)propan-2-yl)oxy)-4-chlorophenyl)pyrimidin-2-yl)amino)-4-methoxy-2-methylphenyl)(morpholino)methanone] | < 10
4 | COc1cc(C)c(C(=O)N2CCOCC2)cc1Nc1ncc(-c2ccc(C#N)c(O[C@@H](C)Cn3cnnn3)c2)cn1 [Example 440, (S)-2-((1-(1H-tetrazol-1-yl)propan-2-yl)oxy)-4-(2-((2-methoxy-4-methyl-5-(morpholine-4-carbonyl)phenyl)amino)pyrimidin-5-yl)benzonitrile] | < 10
5 | COc1cc2c(cc1Nc1ncc(-c3ccc(Cl)c(O[C@@H](C)Cn4cnnn4)c3)cn1)C(=O)N(C1CCC1)C2 [Example 441, (S)-6-((5-(3-((1-(1H-tetrazol-1-yl)propan-2-yl)oxy)-4-chlorophenyl)pyrimidin-2-yl)amino)-2-cyclobutyl-5-methoxyisoindolin-1-one] | 10 to 100
6 | COc1cc2c(cc1Nc1ncc(-c3ccc(C#N)c(O[C@@H](C)Cn4cnnn4)c3)cn1)C(=O)N(C1CCC1)C2 [Example 442, (S)-2-((1-(1H-tetrazol-1-yl)propan-2-yl)oxy)-4-(2-((2-cyclobutyl-6-methoxy-3-oxoisoindolin-5-yl)amino)pyrimidin-5-yl)benzonitrile] | 10 to 100
7 | COc1cc2c(cc1Nc1ncc(-c3ccc(C#N)c(O[C@@H](C)Cn4cncn4)c3)cn1)C(=O)N(C1CCC1)C2 [Example 443, (S)-2-((1-(1H-1,2,4-triazol-1-yl)propan-2-yl)oxy)-4-(2-((2-cyclobutyl-6-methoxy-3-oxoisoindolin-5-yl)amino)pyrimidin-5-yl)benzonitrile] | 10 to 100
8 | C[C@@H](Cn1cnnn1)Oc1cc(-c2cnc(Nc3ccc(N4CCC(N5CCOCC5)CC4)cc3C(N)=O)nc2)ccc1Cl [Example 444, (S)-2-((5-(3-((1-(1H-tetrazol-1-yl)propan-2-yl)oxy)-4-chlorophenyl)pyrimidin-2-yl)amino)-5-(4-morpholinopiperidin-1-yl)benzamide] | ≥ 100
9 | COc1cc2c(cc1Nc1ncc(-c3ccc(Cl)c(O[C@@H](C)Cn4cnnn4)c3)cn1)C(=O)N(CC1COC1)C2 [Example 445, (S)-6-((5-(3-((1-(1H-tetrazol-1-yl)propan-2-yl)oxy)-4-chlorophenyl)pyrimidin-2-yl)amino)-5-methoxy-2-(oxetan-3-ylmethyl)isoindolin-1-one] | 10 to 100
10 | COc1cc2c(cc1Nc1ncc(-c3ccc(C#N)c(O[C@@H](C)Cn4cnnn4)c3)cn1)C(=O)N(CC1COC1)C2 [Example 446, (S)-2-((1-(1H-tetrazol-1-yl)propan-2-yl)oxy)-4-(2-((6-methoxy-2-(oxetan-3-ylmethyl)-3-oxoisoindolin-5-yl)amino)pyrimidin-5-yl)benzonitrile] | 10 to 100
11 | COc1cc2c(cc1Nc1ncc(-c3ccc(Cl)c(O[C@@H](C)Cn4cnnn4)c3)cn1)CCN(C1COC1)CC2 [Example 447, (S)-N-(5-(3-((1-(1H-tetrazol-1-yl)propan-2-yl)oxy)-4-chlorophenyl)pyrimidin-2-yl)-8-methoxy-3-(oxetan-3-yl)-2,3,4,5-tetrahydro-1H-benzo[d]azepin-7-amine] | < 10
12 | COc1ccc(CN2CCOCC2)cc1Nc1ncc(-c2ccc(Cl)c(O[C@@H](C)Cn3cnnn3)c2)cn1 [Example 448, (S)-5-(3-((1-(1H-tetrazol-1-yl)propan-2-yl)oxy)-4-chlorophenyl)-N-(2-methoxy-5-(morpholinomethyl)phenyl)pyrimidin-2-amine] | 10 to 100
13 | COc1ccc(CN2CCS(=O)(=O)CC2)cc1Nc1ncc(-c2ccc(Cl)c(O[C@@H](C)Cn3cnnn3)c2)cn1 [Example 449, (S)-4-(3-((5-(3-((1-(1H-tetrazol-1-yl)propan-2-yl)oxy)-4-chlorophenyl)pyrimidin-2-yl)amino)-4-methoxybenzyl)thiomorpholine 1,1-dioxide] | 10 to 100
14 | C[C@@H](Cn1cnnn1)Oc1cc(-c2cnc(Nc3ccc4c(c3)CCN4C(=O)OC(C)(C)C)nc2)ccc1Cl [Example 450, tert-butyl (S)-5-((5-(3-((1-(1H-tetrazol-1-yl)propan-2-yl)oxy)-4-chlorophenyl)pyrimidin-2-yl)amino)indoline-1-carboxylate] | ≥ 100
15 | C[C@@H](Cn1cnnn1)Oc1cc(-c2cnc(Nc3ccc4c(c3)CCN4)nc2)ccc1Cl [Example 451, (S)-N-(5-(3-((1-(1H-tetrazol-1-yl)propan-2-yl)oxy)-4-chlorophenyl)pyrimidin-2-yl)indolin-5-amine] | 10 to 100
16 | C[C@@H](Cn1cnnn1)Oc1cc(-c2cnc(Nc3ccc4c(c3)CCN4C(=O)C3CCN(C)CC3)nc2)ccc1Cl [Example 452, (S)-(5-((5-(3-((1-(1H-tetrazol-1-yl)propan-2-yl)oxy)-4-chlorophenyl)pyrimidin-2-yl)amino)indolin-1-yl) (1-methylpiperidin-4-yl)methanone] | < 10
17 | Cc1cc(N2CCC(N3CCOCC3)CC2)ccc1Nc1ncc(-c2ccc(Cl)c(O[C@@H](C)Cn3cnnn3)c2)cn1 [Example 453, (S)-5-(3-((1-(1H-tetrazol-1-yl)propan-2-yl)oxy)-4-chlorophenyl)-N-(2-methyl-4-(4-morpholinopiperidin-1-yl)phenyl)pyrimidin-2-amine] | < 10
18 | COc1cc2c(cc1Nc1ncc(-c3ccc(Cl)c(O[C@@H](C)Cn4cnnn4)c3)cn1)CN(C1COC1)CCO2 [Example 454, (S)-N-(5-(3-((1-(1H-tetrazol-1-yl)propan-2-yl)oxy)-4-chlorophenyl)pyrimidin-2-yl)-8-methoxy-4-(oxetan-3-yl)-2,3,4,5-tetrahydrobenzo[f][1,4]oxazepin-7-amine] | ≥ 100
19 | COc1ccc(N2CCCC(N3CCOCC3)C2)cc1Nc1ncc(-c2ccc(Cl)c(O[C@@H](C)Cn3cnnn3)c2)cn1 (stereo partly drawn) [Example 455, 5-(3-(((S)-1-(1H-tetrazol-1-yl)propan-2-yl)oxy)-4-chlorophenyl)-N-(2-methoxy-5-(3-morpholinopiperidin-1-yl)phenyl)pyrimidin-2-amine] | 10 to 100
20 | COc1cnc(N2CCC(N3CCOCC3)CC2)cc1Nc1ncc(-c2ccc(Cl)c(O[C@@H](C)Cn3cnnn3)c2)cn1 [Example 456, (S)-5-(3-((1-(1H-tetrazol-1-yl)propan-2-yl)oxy)-4-chlorophenyl)-N-(5-methoxy-2-(4-morpholinopiperidin-1-yl)pyridin-4-yl)pyrimidin-2-amine] | < 10
21 | COc1cnc(N2CCCC(N3CCOCC3)C2)cc1Nc1ncc(-c2ccc(Cl)c(O[C@@H](C)Cn3cnnn3)c2)cn1 (stereo partly drawn) [Example 457, 5-(3-(((S)-1-(1H-tetrazol-1-yl)propan-2-yl)oxy)-4-chlorophenyl)-N-(5-methoxy-2-(3-morpholinopiperidin-1-yl)pyridin-4-yl)pyrimidin-2-amine] | 10 to 100
22 | COc1cc2c(cc1Nc1ncc(-c3ccc(C#N)c(O[C@@H](C)Cn4cnnn4)c3)cn1)CCN(C(=O)C(F)(F)F)C2 [Example 458, (S)-2-((1-(1H-tetrazol-1-yl)propan-2-yl)oxy)-4-(2-((7-methoxy-2-(2,2,2-trifluoroacetyl)-1,2,3,4-tetrahydroisoquinolin-6-yl)amino)pyrimidin-5-yl)benzonitrile] | 10 to 100
23 | COc1cc2c(cc1Nc1ncc(-c3ccc(Cl)c(O[C@@H](C)Cn4cnnn4)c3)cn1)CCN(C(=O)CN(C)C)C2 [Example 459, (S)-1-(6-((5-(3-((1-(1H-tetrazol-1-yl)propan-2-yl)oxy)-4-chlorophenyl)pyrimidin-2-yl)amino)-7-methoxy-3,4-dihydroisoquinolin-2(1H)-yl)-2-(dimethylamino)ethan-1-one] | < 10
